Experimental data reported in patent US8946381B2, “Compositions and uses thereof for the treatment of wounds” (Phylogica Limited, priority 2006, dated 2015).
Entries after “also recorded” stand apart in the source; their conditions may differ.

How the values were obtained:
[1] = test system: apoptosing epidermal cells surrounding the burn injury; assay: TUNEL assay on burn wound tissue sections; format: in vivo, C57/B16 mice; conditions: one day after burning
Method: A full-thickness burn wound was generated in a murine subject using a modified protocol based on a model previously described (Bruen et al., J Surg Res, 120: 12-20, 2004). Briefly, mice (n=34) were anesthetised (xylazine (10 mg/kg) and ketamine (100 mg/kg)) and subsequently given a full-thickness 10 mm diameter burn by contact with a brass rod (65 g) heated to 95° C. and applied for 9 seconds. 10 control animals were sacrificed post-burn, and histology confirmed all burns were full-thickness. The remaining animals (n=24) were re-hydrated and given analgesics subcutaneously immediately post-burn. The wounds were then dressed using a Tegapore™ membrane dressing (3M Healthcare Ltd) and either phosphate buffered saline (PBS) or PBS containing 20 μM peptide were instilled into the Tegapore™ and administered topically. The mice were then wrapped with a secondary absorbent dressing with minimal pressure so as not to constrict breathing and to allow free movement of the animal after recovery. […]
Tissue sections were labelled using TUNEL (Tdt-mediated dUTP Nick End Labelling) assay as previously described 13. […] Intensity of TUNEL staining was quantitated using Image J software (available from The National Institutes of Health, USA). Intensity of staining of individual nuclei were measured and normalised against the background. […]

[2] = test system: full-thickness burn wound; assay: full-thickness burn wound model in mice, gross morphology and re-epithelialisation; format: in vivo, C57/B16 mice
Method: 8 week old C57/B16 mice were purchased from the Animal Resource Center, Murdoch University, Western Australia and used for all experiments. All experiments were approved by the necessary institutional animal ethics committees and were performed in accordance with the National Health and Medical Research Council (NHMRC) Australian Code of Practice for the Care and Use of Animals for Scientific Purposes.
A full-thickness burn wound was generated in a murine subject using a modified protocol based on a model previously described (Bruen et al., J Surg Res, 120: 12-20, 2004). Briefly, mice (n=34) were anesthetised (xylazine (10 mg/kg) and ketamine (100 mg/kg)) and subsequently given a full-thickness 10 mm diameter burn by contact with a brass rod (65 g) heated to 95° C. and applied for 9 seconds. 10 control animals were sacrificed post-burn, and histology confirmed all burns were full-thickness. The remaining animals (n=24) were re-hydrated and given analgesics subcutaneously immediately post-burn. The wounds were then dressed using a Tegapore™ membrane dressing (3M Healthcare Ltd) and either phosphate buffered saline (PBS) or PBS containing 20 μM peptide were instilled into the Tegapore™ and administered topically. The mice were then wrapped with a secondary absorbent dressing with minimal pressure so as not to constrict breathing and to allow free movement of the animal after recovery. Ten minutes post-injury, dressings were removed and animals allowed to recover from anesthesia in their cages with feed and water provided ad libitum.
Wounds were harvested on post-injury days 1, 3, 7 and 11 (n=3 for each time-point for both treated and control groups). Each wound was bisected along the cranial-caudal axis and one half of the tissue fixed in 4% paraformaldehyde solution and the other half stored as frozen tissue. Haematoxylin and Eosin stained sections were used to determine the quality of wound healing.
Progress of re-epithelialisation was quantitated by measuring distance between leading epithelial edges using an eye-piece graticule on histological slides. Difference between treated and control wounds was analysed using standard two-tail t-TEST for two-samples assuming unequal variance. p<0.05 is defined as the level of statistical significance.

fibroblast cells = assay: MTT colorimetric proliferation assay, fibroblasts; format: cell-based; conditions: 100 nm, 1 μM or 10 μM, 24, 48 or 72 hours
Method: (§1) Cultures of keratinocytes (HaCaT cells) or fibroblasts were cultured in a microwell plate the presence of a peptide analog comprising the amino acid sequence set forth in SEQ ID NO: 104 at a concentration of 100 nm, 1 μM or 10 μM. Following an incubation period 24 hours, 48 hours, or 72 hours, cells were incubated in the presence of MTT for a sufficient time for a mitochondrial dehydrogenase enzyme from viable cells to cleave the tetrazolium rings of the pale yellow MTT and form dark blue formazan crystals. Cells were then solubilized and the level of […] crystals determined using a microtitre plate reader at 492 nm.

HaCaT keratinocytes = assay: MTT colorimetric proliferation assay, keratinocytes; format: cell-based; conditions: 100 nm, 1 μM or 10 μM, 24, 48 or 72 hours
Method: as §1

H-rerrsssqiGGsrisqyaGrrrqrrkkrG-NH2 [SEQ ID NO: 104]
TUNEL staining intensity vs control ([1]; 500 μm from the wound edge): marked difference in intensity
TUNEL positive staining in epidermis ([1]; 1500 μm from the wound edge): complete lack of positive staining
gross morphology of wound ([2]; day 7 post-burn): Early reepithelialization is present and separation of the eschar evident
gap without epidermis (not re-epithelialized) ([2]; day 7 post-burn, 20 μM peptide in PBS topical): 2 mm
re-epithelialization of wound ([2]; day 11 post-burn, 20 μM peptide in PBS topical): re-epithelialized by day 11; also recorded: all the treated wounds are covered; also recorded: completely re-epithelialized
eschar diameter ([2]; day 11 post-burn, 20 μM peptide in PBS topically via Tegapore dressing for ten minutes): < 2 mm
scarring (de novo hair follicle morphogenesis) ([2]; day 11 post-burn, histology): scarring has not occurred
wound size between leading epidermal edges ([2]; within 24 hours post-injury, 20 μM peptide in PBS topical): 10 mm
cellular proliferation (MTT) (fibroblast cells): did not stimulate proliferation
cellular proliferation (MTT) vs untreated cells (HaCaT keratinocytes): increased cellular proliferation rates; also recorded: enhanced and/or induced proliferation
